Values joined by “and” are separate entries in the source; they are usually repeats but may differ in a detail not shown here. Identical values can stand only once.
Experiments:
[1] = tested on: Thiobacillus ferrooxidans; assay: Fe^2+ oxidation by resting cells (oxygen consumption rate, Oxygraph); type: cell-based; details: for inhibition of Fe^2+ oxidation: pH 3
Procedure: For the resting cell experiments, cells from large scale growth were filtered through Whatman™ No. 1 filter paper under suction before centrifugation at 8000× g. The cells were washed in 0.1 M β-alanine-H2SO4 (pH 2.3) and suspended in the same buffer to a concentration of 50 mg wet cells per ml.
The rate of ferrous iron and sulfur oxidation by the resting cells was determined by the oxygen consumption rate (nmol O2/min) in a Gilson™ Oxygraph with a Clark™ oxygen electrode at 25° C. The reaction mixture in a total volume of 1.2 ml contained 10-100 μl cell suspension, 0.5 μmol FeSO4 or 0.1 ml elemental sulfur suspension (32 mg in 500 ppm Tween-80™) and 0.1 M β-alanine-H2SO4 at pH 3.0 (standard condition) or varying inhibitory concentrations of salts at pH 3.0, as described below. Specifically, the effect of standard biological oxidation inhibitors, sodium azide and sodium cyanide in 0.1 M β-alanine-H2SO4 at pH 3.0 was studied.

[2] = tested on: Thiobacillus ferrooxidans; assay: S^0 oxidation by resting cells (oxygen consumption rate, Oxygraph); type: cell-based
T. ferrooxidans [3] = tested on: T. ferrooxidans
Procedure: (§1) Growth inhibition studies were carried out in a Micro-oxymax™ respirometer at Cominco Research in Trail, British Columbia, wherein the O2 and CO2 consumption (at 52 minute intervals) of cultures at 26° C. were monitored over time (45-50 hours). Each flask contained a total volume of 100 ml, comprised of 5 ml inoculum culture plus 95 ml HP medium with varying concentrations of inhibitors plus Fe^2+ or S^0 as growth substrate (33.3 g FeSO4.7H2O or 25 g sulfur per liter). In the S^0 medium, HP medium was supplemented with 18 mg FeSO4.7H2O per liter. A growth curve was generated from the monitored O2 and CO2 consumption rates over time, as described below.

T. thiooxidans [4] = tested on: T. thiooxidans
Procedure: as §1

T. thiooxidans [5] = assay: Bacterial leaching of flotation tailings with T. thiooxidans; type: cell-based, Thiobacillus thiooxidans
Procedure: (§2) Bacterial leaching was performed in shake flask experiments with 250 ml Erlenmeyer™ flasks containing 95 ml of HP medium with and without inhibitors unless otherwise specified, 4 ml of inoculum (Fe^2+-grown T. ferrooxidans, S^0-grown T. thiooxidans or both) and 5 g of floatation tailings supplied by Cominco Research were used, as described below. The flasks were grown at 26° C. on a rotary shaker at 150 rpm for 14 days. At various time intervals, 5 ml samples were taken to determine the concentrations of dissolved zinc and iron in the leachate as well as the percentage of zinc and iron remaining in the precipitate (after filtration of the leachate).

[6] = tested on: bioleaching of chalcopyrite (CuFeS2) and sphalerite mixture; type: cell-based
Procedure: as §2

[7] = tested on: bacterial leaching of a complex sulfide ore; assay: Bacterial leaching of a complex sulfide ore from the Flin Flon mine; type: cell-based, Thiobacillus thiooxidans SM-7
Procedure: In this embodiment of the invention, bacterial strains Thiobacillus ferrooxidans SM-4 and Thiobacillus thiooxidans SM-6 (FIGS. 1, 3 and 4 and Table 2) or SM-7 (Table 5) were used. Specifically, T. ferrooxidans was grown on Fe^2+ or S^0 while T. thiooxidans was grown only on sulfur. HP medium, described in Suzuki et al, 1990, Appl Environ Microbiol 56:1620-1626, consisting of: 0.4 g (NH4)2SO4, 0.1 g K2HPO4, 0.4 g MgSO4.7H2O per liter, adjusted to pH 2.3 with H2SO4 was used for growth of bacteria on Fe^2+, for growth in a Micro-oxymax™ respirometer (both Fe^2+ and S^0 growth), and for mineral leaching experiments, as described below. For growth on Fe^2+, 33.3 g FeSO4.7H2O per liter (pH 2.3, filter-sterilized) was added to the above-described HP medium. Cultures were grown in shake flasks (100 ml) with 10% inoculum (v/v) in 250 ml Erlenmeyer™ flasks at 25° C. at 120 rpm for 24 hours. It is of note that for large scale growth, medium volume and flask size were increased.
. In fact, the highest level of Cu leaching using this ore is nearly five times greater than previously reported values in the absence of additional anions (Lizama and Suzuki, 1988, Biotechnol Bioeng 32: 110-116). […] That is, copper and zinc can be recovered from a complex ore without the need for separation simply by replacing the media following completion of copper leaching because of this lag time.

T. ferrooxidans [8] = type: cell-based, Thiobacillus ferrooxidans
Procedure: as §2

[9] = tested on: T. ferrooxidans and T. thiooxidans
Procedure: as §2

[10] = Acidithiobacillus ferrooxidans, pH 3, read-out: inhibition of Fe^2+ oxidation
[11] = Acidithiobacillus ferrooxidans, pH 3, read-out: inhibition of S^0 oxidation

| Compound | inhibition at 10 µM [1, 10] | inhibition at 50 µM [1, 10] | inhibition at 10 µM [2, 11] | inhibition at 50 µM [2, 11] | inhibition of Fe^2+ oxidation [1] | inhibition of S^0 oxidation ([2]; pH 3) | Fe^2+ oxidation during growth (T. ferrooxidans [3]) | S^0 oxidation during growth (T. thiooxidans [4]) | Fe leaching (T. thiooxidans [5]) | extraction of Zn [6] | Cu leaching [7] | Zn leaching [7] | Fe leaching (T. ferrooxidans [8]) | Zn leaching (T. ferrooxidans [8]) | reduction in Zn leaching (T. ferrooxidans [8]) | Fe leaching [9] | inhibition of Fe leaching relative to Zn leaching [9] | iron oxidation [6] |
| --- | --- | --- | --- | --- | --- | --- | --- | --- | --- | --- | --- | --- | --- | --- | --- | --- | --- | --- |
| [N-]=[N+]=[N-] [sodium azide, reference compound] | 90% | 95% | 35% | 90% |  |  |  |  |  |  |  |  |  |  |  |  |  |  |
| potassium chloride |  |  |  |  | 30% and 40% | 10% | inhibited | stimulated | reduced Fe leaching at high concentrations, albeit to a much smaller degree | stimulated | stimulation | stimulation |  |  |  |  |  |  |
| potassium nitrate |  |  |  |  | 90% and 100% |  |  |  | reduced Fe leaching at high concentrations, albeit to a much smaller degree |  |  |  | reduced the Fe leaching similar to phosphate | considerably inhibited |  |  |  |  |
| potassium phosphate |  |  |  |  | 60% |  | inhibited | stimulated | strongly inhibited | slightly reduced | stimulation | stimulation |  |  | 50% | no Fe leaching | most effective inhibitor of Fe leaching without inhibiting Zn leaching extensively | reduced |
